In ChEMBL document CHEMBL5107969, “Alzheimer's disease: Updated multi-targets therapeutics are in clinical and in progress” (Eur J Med Chem, 2022):
One block for each molecule: values may come before it.

What was measured:
[1] = Drug concentration in […] mouse brain at 3 mg/kg, po measured after 30 mins; format: ADME, organism-based; settings: read-out: Ct
[2] = Drug uptake in CD-1 mouse plasma at 10 mg/kg, po via gavage measured after 5 mins by LC-MS/MS analysis; format: ADME, organism-based
[3] = Drug uptake in CD-1 mouse brain at 10 mg/kg, po via gavage measured after 5 mins by LC-MS/MS analysis; format: ADME, organism-based; settings: read-out: Ct
[4] = molecular target: T1, Amyloid-beta precursor protein (Homo sapiens, UniProt P05067); experiment: Inhibition of self-induced amyloid beta (1 to 42) (unknown origin) aggregation at 25 uM incubated for 24 hrs by Thioflavin T-based fluorometric assay relative to control
T1 sequence (P05067 whole entry): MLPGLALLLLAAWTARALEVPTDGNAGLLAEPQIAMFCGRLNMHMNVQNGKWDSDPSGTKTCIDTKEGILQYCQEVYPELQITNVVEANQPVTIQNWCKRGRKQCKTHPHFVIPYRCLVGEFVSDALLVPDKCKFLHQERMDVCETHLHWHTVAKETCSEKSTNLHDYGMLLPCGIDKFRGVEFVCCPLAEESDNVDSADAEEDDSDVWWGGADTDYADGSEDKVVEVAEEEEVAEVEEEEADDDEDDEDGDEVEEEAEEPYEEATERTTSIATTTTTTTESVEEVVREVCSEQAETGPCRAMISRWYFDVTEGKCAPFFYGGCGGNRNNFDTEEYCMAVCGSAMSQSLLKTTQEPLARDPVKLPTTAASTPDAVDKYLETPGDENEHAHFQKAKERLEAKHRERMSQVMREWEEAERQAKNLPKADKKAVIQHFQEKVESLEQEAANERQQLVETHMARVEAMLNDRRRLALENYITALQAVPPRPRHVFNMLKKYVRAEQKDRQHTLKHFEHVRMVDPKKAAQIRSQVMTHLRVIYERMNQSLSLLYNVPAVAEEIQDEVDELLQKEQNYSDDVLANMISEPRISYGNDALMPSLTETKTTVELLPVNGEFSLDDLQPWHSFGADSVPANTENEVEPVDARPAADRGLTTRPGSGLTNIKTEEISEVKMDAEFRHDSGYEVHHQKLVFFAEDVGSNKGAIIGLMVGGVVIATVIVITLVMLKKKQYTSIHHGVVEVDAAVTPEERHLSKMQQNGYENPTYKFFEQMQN

[5] = molecular target: Cholinesterase (Equus caballus, UniProt P81908); experiment: Inhibition of equine serum BChE incubated for 15 mins by Ellman's method; format: cell-free
Cholinesterase, sequence (P81908 whole entry): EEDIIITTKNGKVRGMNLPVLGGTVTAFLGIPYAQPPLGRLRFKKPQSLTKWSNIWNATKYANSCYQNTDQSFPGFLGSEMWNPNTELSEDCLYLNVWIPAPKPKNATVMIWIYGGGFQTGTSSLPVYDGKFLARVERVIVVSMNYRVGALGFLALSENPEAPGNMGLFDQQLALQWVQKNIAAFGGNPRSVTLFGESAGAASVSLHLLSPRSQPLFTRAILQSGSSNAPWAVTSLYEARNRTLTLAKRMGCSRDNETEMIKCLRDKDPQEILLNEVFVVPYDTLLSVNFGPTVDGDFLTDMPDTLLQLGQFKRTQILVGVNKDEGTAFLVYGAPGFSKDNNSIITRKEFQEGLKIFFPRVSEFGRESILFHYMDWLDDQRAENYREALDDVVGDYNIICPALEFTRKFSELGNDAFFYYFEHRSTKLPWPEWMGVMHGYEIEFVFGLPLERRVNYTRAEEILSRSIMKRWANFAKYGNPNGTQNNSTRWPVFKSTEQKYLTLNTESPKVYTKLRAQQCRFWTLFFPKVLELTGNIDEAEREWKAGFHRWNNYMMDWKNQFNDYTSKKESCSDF

[6] = molecular target: T1, Amyloid-beta precursor protein; experiment: Disaggregation of self-induced amyloid beta (1 to 42) (unknown origin) aggregation at 25 uM incubated for 24 hrs by Thioflavin T-based fluorometric assay relative to control
[7] = test system: HEK293; experiment: Induction of Nrf2/ARE transcriptional activation in human HEK293 cells measured after 24 hrs by Bright-Glo luciferase assay; format: cell-based; settings: filed as activator
[8] = molecular target: T1, Amyloid-beta precursor protein; experiment: Inhibition of human AChE-induced amyloid beta (1 to 40) aggregation (unknown origin)
[9] = species: Homo sapiens; experiment: Selectivity ratio of Ki for sigma1 receptor (unknown origin) to Ki for sigma2 receptor (unknown origin)

concentration at 0.5 h [1]: 620 nM
Structure (SMILES): NC1=NC(c2ccc(F)cc2)NC(=O)N1 (centres undefined)

concentration at 5 min [2]: 5.91 ng/mL
concentration at 5 min [3]: 14.3 ng/mL
Structure (SMILES): CN(C)c1ccc(O)c(CNc2cccc3ccc(CO)nc23)c1

Ratio Ki [9]: 28
Structure (SMILES): O=c1ccoc2ccc(OCCCN3CCCCCC3)cc12

More lines, now with the values behind:

Structure (SMILES): CCN(CCCCOc1ccc(/C=C/C(=O)N2CCc3ccccc3C2)cc1OC)Cc1ccccc1
inhibition [4]: 53.9%
IC50 [5]: 0.0089 µM
Activity [6]: 43.8%

Structure (SMILES): CCCOc1ccc2[nH]cc(CCNC(=O)CN(CCc3c[nH]c4ccc(OCc5ccccc5)cc34)C(=O)CCCC[C@@H]3CCSS3)c2c1
CD [7]: 28.1 µM

Structure (SMILES): CCN(CCCCCCNC1=CC(=O)C(NCCCCCCN(CC)Cc2ccccc2OC)=CC1=O)Cc1ccccc1OC [MEMOQUIN]
IC50 [8]: 28.3 µM
